From patent US4501892A, “Pyridyl benzenediols” (The Upjohn Company, priority 1982, dated 1985)

Biological target: T1, TXA2 synthetase (Homo sapiens, UniProt P24557)
T1 construct: human platelet microsomes (HPM); from tissue; host or cells: human platelet microsomes
T1 sequence (P24557 1-533): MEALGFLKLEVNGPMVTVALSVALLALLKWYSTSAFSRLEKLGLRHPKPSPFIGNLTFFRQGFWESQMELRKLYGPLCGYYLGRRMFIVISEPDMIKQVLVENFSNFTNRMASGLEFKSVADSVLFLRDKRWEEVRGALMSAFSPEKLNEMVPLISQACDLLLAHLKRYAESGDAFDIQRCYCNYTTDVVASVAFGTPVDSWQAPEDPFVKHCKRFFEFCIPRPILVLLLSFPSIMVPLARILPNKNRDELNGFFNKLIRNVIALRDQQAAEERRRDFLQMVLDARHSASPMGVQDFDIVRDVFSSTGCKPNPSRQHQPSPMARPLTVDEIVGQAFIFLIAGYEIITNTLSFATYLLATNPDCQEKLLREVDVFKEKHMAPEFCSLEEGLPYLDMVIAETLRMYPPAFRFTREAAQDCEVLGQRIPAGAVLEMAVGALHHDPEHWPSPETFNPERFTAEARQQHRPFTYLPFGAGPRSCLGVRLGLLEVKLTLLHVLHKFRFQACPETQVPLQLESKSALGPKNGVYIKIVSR
Assay: TXA2 inhibition test: PGH2 mixed with human platelet microsomes (HPM), TXA2 measured by response of superfused rabbit aortic strips
Assay type: biochemical
Settings: rabbit aorta response; for effectiveness in inhibiting TXA2 formation (in words): PGH2 + human platelet microsomes
Description: The compounds of the present invention were tested for TXA2 inhibition as follows:
Rabbit aortic strips were superfused in series with Krebs solution. Thromboxane A2 (TXA2) was generated by mixing prostaglandin H2 (PGH2) with human platelet microsomes (HPM).
Potential inhibitors were tested by comparing the response of the rabbit aorta to the amount of TXA2 produced by mixing PGH2 and HPM without the test compound in the reaction medium and then the amount of TXA2 produced when the test compound was added to the HPM 5 minutes before the HPM was mixed with PGH2. […] For a discussion of TXA2 synthetase inhibition testing see, e.g., R. Gorman, supra.

effectiveness in inhibiting TXA2 formation (in words) | IC50 (test compound added to HPM 5 minutes before mixing with PGH2, read-out: approximate ED50 (inhibition of TXA2 formation) (converted)) | Compound
most effective |  | 2,3-Dihydro-7-(and 6-)(3-pyridinylmethyl)-1,4-benzodioxin-2-carboxylic acid, sodium salt
most effective | ~369 nM | COC(=O)C1Oc2ccc(Cc3cccnc3)cc2O1 (racemic) [Example 1, dl-4-(3-Pyridinylmethyl)-1,2-benzenediol, methyl glyoxylate acetal]
